{"source": "patent US6509375B1", "about": "“Method for increasing productivity in breeder hens” (Cyncron Corporation, priority 1999, dated 2003)", "type_in_all_cases": "in vivo", "key": {"broiler/breeder hens": {"tested_on": "broiler/breeder hens", "experiment": "Egg laying by broiler breeder hens following handling and transfer stress (Example 2)", "conditions": "for number of eggs laid: ten hens/group, 50 mg/day/kg body weight in food", "description": "58 week old broiler/breeder hens were obtained from a commercial private breeder when they were laying at a rate of approximately 54% (54 eggs/day/100 hens; 38 eggs/week/10 hens). […] L-DOPA was added to the feed of the treatment group of breeder hens at a dosage of 50 mg/day/kg body weight; none was added to the feed of the control group. Egg laying was monitored daily for 9 weeks in the treated and control group."}, "[1]": {"tested_on": "Hubbard broiler/breeder hens", "experiment": "Egg and chick production by broiler/breeder hens fed L-DOPA-supplemented diet (Example 1)", "conditions": "for Fertility (%): eggs laid that are fertile; for Egg production (%): eggs/day/100 hens, 50 mg/kg body weight in feed; for Hatch/Fertile (%): fertile eggs that hatch / fertile eggs laid; for Chick Production (%): product of egg production, fertility and hatch/fertile percentages", "description": "20 Hubbard broiler/breeder hens and 4 roosters at 57 weeks of age were separated into two groups of 10 hens and two roosters. One group was fed a control (untreated) diet and the second group was fed the same diet supplemented with 50 mg/kg body weight of L-DOPA for 10 weeks. This was followed by a 3-4 week rest period and then treatment was initiated for another 3 weeks (retreatment).\n(§1) Beginning with week 6 of treatment, eggs from treated hens were incubated and hatched. The progeny were then followed for seven to eight weeks to assess weight gain and feeding efficiency. Egg production percentage is in terms of eggs/day/100 hens. The fertility percentage is the number of eggs laid that are fertile. The hatch/fertile ratio is the number of fertile eggs that hatch divided by the number of fertile eggs laid. The chick production percentage is the product of the egg production, fertility, and hatch/fertile percentages."}, "[2]": {"tested_on": "progeny chicks of broiler/breeder hens", "experiment": "Feeding efficiency of progeny chicks hatched from eggs of L-DOPA treated breeder hens", "description": "As used herein, “feeding efficiency” is defined as the ratio of the weight of feed necessary to achieve one weight unit in broiler/breeder hens.\nas §1\nThe progeny chicks hatched from eggs laid by the control and L-DOPA treated breeder hens were evaluated for feeding efficiency, as described above.\nProgeny Group 1: 8 week feed conversions; Week […] of treatment in broiler breeders\nProgeny Group 2: 8 week feed conversions; Week 7 of treatment in broiler breeders\nProgeny Group 3: 8 week feed conversions; Week 8 of treatment in broiler breeders\nProgeny Group 4: 7 week feed conversions; Week 9 of treatment in broiler breeders\nProgeny Group 5: 6 week feed conversions; Week 10 of treatment in broiler breeders"}}}
{"compound": "N[C@@H](Cc1ccc(O)c(O)c1)C(=O)O", "note": "[L-DOPA, L-Dihydroxyphenylalanine]", "values": [{"measurement": "number of eggs laid", "setting": "broiler/breeder hens; Total of weeks 1-9 after handling and transfer stress", "value": 327}, {"measurement": "recovery time to achieve the same egg laying productivity rate as before the stress", "setting": "broiler/breeder hens; control hens: two months", "value": "one month"}, {"measurement": "total number of eggs laid greater than that of untreated controls", "setting": "broiler/breeder hens; nine weeks following the moving stress", "value": 31, "unit": "%"}, {"measurement": "number of eggs laid", "setting": "broiler/breeder hens; week 1 after handling and transfer stress", "value": 10}, {"measurement": "number of eggs laid", "setting": "broiler/breeder hens; week 2 after handling and transfer stress", "value": 29}, {"measurement": "number of eggs laid", "setting": "broiler/breeder hens; week 3 after handling and transfer stress", "value": 34}, {"measurement": "number of eggs laid", "setting": "broiler/breeder hens; week 4 after handling and transfer stress", "value": 41}, {"measurement": "number of eggs laid", "setting": "broiler/breeder hens; week 5 after handling and transfer stress", "value": 39}, {"measurement": "number of eggs laid", "setting": "broiler/breeder hens; week 6 after handling and transfer stress", "value": 50}, {"measurement": "number of eggs laid", "setting": "broiler/breeder hens; week 7 after handling and transfer stress", "value": 41}, {"measurement": "number of eggs laid", "setting": "broiler/breeder hens; week 8 after handling and transfer stress", "value": 40}, {"measurement": "number of eggs laid", "setting": "broiler/breeder hens; week 9 after handling and transfer stress", "value": 43}, {"measurement": "average percentage egg production versus control hens", "setting": "[1]; FIG. 1, over an eight week period", "value": "greater"}, {"measurement": "cumulative egg production versus control hens", "setting": "[1]; FIG. 2, nine week period, L-DOPA-supplemented feed", "value": "significantly higher"}, {"measurement": "percentage egg production versus control hens during re-treatment", "setting": "[1]; FIG. 3, three weeks of re-treatment following three weeks without L-DOPA", "value": "increase"}, {"measurement": "average weekly egg production versus control hens", "setting": "[1]; FIGS. 1 and 2, L-DOPA-supplemented feed 50 mg/kg body weight", "value": "significantly higher"}, {"measurement": "higher rates of hatching of fertile eggs over eggs from control hens", "setting": "[1]; eggs set for incubation during weeks 7, 8 and 10 of treatment", "value": 15, "unit": "%"}, {"measurement": "Fertility (%)", "setting": "[1]; mean of weeks 7, 8, 10", "value": 92, "unit": "%"}, {"measurement": "Egg production (%)", "setting": "[1]; mean of weeks 7, 8, 10", "value": 64, "unit": "%"}, {"measurement": "Hatch/Fertile (%)", "setting": "[1]; mean of weeks 7, 8, 10", "value": 84, "unit": "%"}, {"measurement": "Chick Production (%)", "setting": "[1]; mean of weeks 7, 8, 10", "value": 51, "unit": "%"}, {"measurement": "Fertility (%)", "setting": "[1]; week 7 of treatment", "value": 84, "unit": "%"}, {"measurement": "Egg production (%)", "setting": "[1]; week 7 of treatment", "value": 71, "unit": "%"}, {"measurement": "Hatch/Fertile (%)", "setting": "[1]; week 7 of treatment", "value": 75, "unit": "%"}, {"measurement": "Chick Production (%)", "setting": "[1]; week 7 of treatment", "value": 45, "unit": "%"}, {"measurement": "Fertility (%)", "setting": "[1]; week 8 of treatment", "value": 100, "unit": "%"}, {"measurement": "Egg production (%)", "setting": "[1]; week 8 of treatment", "value": 58, "unit": "%"}, {"measurement": "Hatch/Fertile (%)", "setting": "[1]; week 8 of treatment", "value": 90, "unit": "%"}, {"measurement": "Chick Production (%)", "setting": "[1]; week 8 of treatment", "value": 52, "unit": "%"}, {"measurement": "Fertility (%)", "setting": "[1]; week 10 of treatment", "value": 92, "unit": "%"}, {"measurement": "Egg production (%)", "setting": "[1]; week 10 of treatment", "value": 62, "unit": "%"}, {"measurement": "Hatch/Fertile (%)", "setting": "[1]; week 10 of treatment", "value": 86, "unit": "%"}, {"measurement": "Chick Production (%)", "setting": "[1]; week 10 of treatment", "value": 55, "unit": "%"}, {"measurement": "overall gain in chick production over the control groups", "setting": "[1]; weeks 7, 8 and 10 of treatment", "value": 76, "unit": "%"}, {"measurement": "Final feeding efficiency of progeny", "setting": "[2]; Average of progeny groups 1-5", "value": "2.05 pounds of feed consumed per pound of body weight gained"}, {"measurement": "Final feeding efficiency of progeny", "setting": "[2]; Progeny Group 1: 8 week feed conversions, Week 8 of treatment in broiler breeders", "value": "1.99 pounds of feed consumed per pound of body weight gained"}, {"measurement": "Final feeding efficiency of progeny", "setting": "[2]; Progeny Group 2: 8 week feed conversions, Week 7 of treatment in broiler breeders", "value": "2.07 pounds of feed consumed per pound of body weight gained"}, {"measurement": "Final feeding efficiency of progeny", "setting": "[2]; Progeny Group 3: 8 week feed conversions, Week 8 of treatment in broiler breeders", "value": "1.98 pounds of feed consumed per pound of body weight gained"}, {"measurement": "Final feeding efficiency of progeny", "setting": "[2]; Progeny Group 4: 7 week feed conversions, Week 9 of treatment in broiler breeders", "value": "2.07 pounds of feed consumed per pound of body weight gained"}, {"measurement": "Final feeding efficiency of progeny", "setting": "[2]; Progeny Group 5: 6 week feed conversions, Week 10 of treatment in broiler breeders", "value": "2.12 pounds of feed consumed per pound of body weight gained"}, {"measurement": "average increase in feeding efficiency of progeny relative to control birds", "setting": "[2]; progeny hatched from eggs during weeks 6-10 of treatment", "value": 6, "unit": "%"}]}
